{"source": "patent US8134013B2", "about": "“Amide compound and thrombopoietin receptor activator” (Nissan Chemical Industries, Ltd., priority 2004, dated 2012)", "key": {"[1]": {"target": "T1, human thrombopoietin receptor (c-mpl) (Homo sapiens, UniProt P40238)", "T1 construct": "expressed in transfected cells", "T1 sequence (P40238 26-635)": "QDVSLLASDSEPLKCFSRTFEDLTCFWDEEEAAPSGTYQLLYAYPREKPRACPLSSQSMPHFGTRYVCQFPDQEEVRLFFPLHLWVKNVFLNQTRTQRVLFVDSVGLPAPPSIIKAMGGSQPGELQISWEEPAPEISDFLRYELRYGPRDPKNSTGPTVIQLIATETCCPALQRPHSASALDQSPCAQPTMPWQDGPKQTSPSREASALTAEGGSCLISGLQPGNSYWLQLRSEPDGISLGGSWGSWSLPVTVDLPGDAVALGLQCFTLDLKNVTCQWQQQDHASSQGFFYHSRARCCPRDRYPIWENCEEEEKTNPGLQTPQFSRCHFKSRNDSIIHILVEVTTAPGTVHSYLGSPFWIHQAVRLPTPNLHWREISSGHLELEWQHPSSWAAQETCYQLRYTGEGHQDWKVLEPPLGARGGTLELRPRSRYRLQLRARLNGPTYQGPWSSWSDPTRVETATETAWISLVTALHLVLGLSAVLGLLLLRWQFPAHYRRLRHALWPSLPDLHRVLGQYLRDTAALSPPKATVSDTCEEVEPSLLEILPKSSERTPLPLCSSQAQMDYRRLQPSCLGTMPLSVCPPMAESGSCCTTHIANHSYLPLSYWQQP", "assay": "Stimulation of proliferation of thrombopoietin-dependent cell line UT7/EPO-mpl (WST-8)", "format": "cell-based", "conditions": "for EC50: human leukemic cell line UT-7/EPO-mpl, 4 days incubation, relative to 10 ng/mL TPO, read-out: EC50 (concentration that yields a growth rate corresponding to 50% of the growth observed in the presence of 10 ng/mL TPO) (converted)", "procedure": "The response of thrombopoietin receptor to the compound of Synthetic Example 2 of the present invention was assayed using a human leukemic cell line, UT7/EPO-mpl.\n(§1) UT7/EPO-mpl is a stable transformed cell line obtained by introducing into human leukemic cell line UT7/EPO a vector that induces expression of human thrombopoietin receptor (c-mpl) under control of cytomegalovirus immediate-early promoter by the method of Takatoku et al. (J. Biol. Chem., 272:7259-7263 (1997)). […] These two cell lines were subcultured in IMDM (GIBCO) containing 10% fetal bovine serum (Thermo Electron or BioWest) using a CO2 incubator (5% CO2, 37° C.).\nThe subcultured cells described above were washed twice with PBS and suspended in IMDM containing 10% fetal bovine serum at a cell density of 6×10^4 cells/ml. The cell suspension was transferred to a 96-well tissue culture plate (CORNING) in 100-μl aliquots. Then either thrombopoietin (Pepro Tech EC, or the compound of Synthetic Example 2 dissolved in dimethyl sulfoxide was diluted 83-fold with IMDM containing 10% fetal bovine serum and added to the aforementioned cell suspension in 20-μl aliquots. The cell suspension was incubated in a CO2 incubator (5% CO2, 37° C.) for 4 days. Cell proliferation was assayed using WST-8 reagent (Kishida Chemical Co., Ltd.) according to instructions by the manufacturer. A 10-μl aliquot of 5 mM WST-8 reagent solution was added to each well of the tissue culture plate, and the plate was incubated at 37° C. for 4 hours. The formazan pigment generated was detected by measuring the absorbance at 450 nm with a 96-well microplate reader (Nihon Molecular Devices, Spectramax 190).\nThe compounds of the following Synthetic Examples were tested according to the method of Assay Example 1 to determine the concentration of each compound that yields a growth rate corresponding to 50% of the growth of human leukemic cell line UT-7/EPO-mpl observed in the presence of 10 ng/mL TPO (EC50)."}, "[2]": {"target": "T1, human thrombopoietin receptor (c-mpl)", "conditions": "property of the cell line as described; cited from earlier work"}, "[3]": {"system": "UT7/EPO cells", "conditions": "property of the cell line as described; cited from earlier work"}, "[4]": {"system": "UT7/EPO cells", "assay": "Proliferation of mother cell line UT7/EPO expressing no thrombopoietin receptor (WST-8)", "format": "cell-based, human", "conditions": "FIG. 2", "procedure": "as §1\nThe subcultured cells described above were washed twice with PBS and suspended in IMDM containing 10% fetal bovine serum at a cell density of 6×10^4 cells/ml. The cell suspension was transferred to a 96-well tissue culture plate (CORNING) in 100-μl aliquots. […] The formazan pigment generated was detected by measuring the absorbance at 450 nm with a 96-well microplate reader (Nihon Molecular Devices, Spectramax 190)."}}, "data": [{"compound": "CC(=O)NC1CCN(C(=O)c2ccc(C(=O)N/N=C(\\C)c3csc(-c4ccc(Cl)c(Cl)c4)c3O)s2)C1", "note": "(stereo not shown) [compound 5]", "values": [{"measurement": "EC50", "setting": "[1]", "result": 0.566, "unit": "nM"}]}, {"compound": "C/C(=N\\NC(=O)c1ccc(C(=O)NN(C)C)s1)c1csc(-c2ccc(C(C)(C)C)cc2)c1O", "note": "[compound 24]", "values": [{"measurement": "EC50", "setting": "[1]", "result": 2.27, "unit": "nM"}]}, {"compound": "C/C(=N\\NC(=O)c1ccc(C(=O)NNc2ccccn2)s1)c1csc(-c2ccc(Cl)c(Cl)c2)c1O", "note": "[compound 58]", "values": [{"measurement": "EC50", "setting": "[1]", "result": 1.56, "unit": "nM"}]}, {"compound": "C/C(=N\\NC(=O)c1ccc(C(=O)NCCCN2CCOCC2)s1)c1nn(C)c(-c2ccc(C(F)(F)F)cc2)c1O", "note": "[compound 49]", "values": [{"measurement": "EC50", "setting": "[1]", "result": 2.77, "unit": "nM"}]}, {"compound": "C/C(=N\\NC(=O)c1ccc(C(=O)N2CC(O)C(O)C2)s1)c1csc(-c2cccc(Cl)c2)c1O", "note": "(stereo not shown) [compound 90]", "values": [{"measurement": "EC50", "setting": "[1]", "result": 0.652, "unit": "nM"}]}, {"compound": "C/C(=N\\NC(=O)c1ccc(C(=O)NCCC(=O)O)s1)c1csc(-c2ccc(Cl)cc2)c1O", "note": "[compound 45]", "values": [{"measurement": "EC50", "setting": "[1]", "result": 6.5, "unit": "nM"}]}, {"compound": "TPO: Thrombopoietin is a cytokine consisting of 332 amino acids that increases platelet production", "values": [{"measurement": "proliferation of UT7/EPO-mpl cell line", "setting": "[2]", "result": "stimulated"}, {"measurement": "response of mother cell line UT7/EPO", "setting": "[3]", "result": "no response"}]}, {"compound": "COC1CN(C(=O)c2ccc(C(=O)N/N=C(\\C)c3csc(-c4ccc(Br)cc4)c3O)s2)CC1OC", "note": "(stereo not shown) [compound 84]", "values": [{"measurement": "EC50", "setting": "[1]", "result": 5.01, "unit": "nM"}]}, {"compound": "C/C(=N\\NC(=O)c1ccc(C(=O)NCCC(=O)O)s1)c1csc(-c2ccc(C)c(C)c2)c1O", "note": "[compound 65]", "values": [{"measurement": "EC50", "setting": "[1]", "result": 4.12, "unit": "nM"}]}, {"compound": "C/C(=N\\NC(=O)c1ccc(C(=O)NCC2CCCO2)s1)c1csc(-c2ccc(Cl)c(Cl)c2)c1O", "note": "(stereo not shown) [Synthetic Example 2, 5-{1-[5-(3,4-Dichlorophenyl)-4-hydroxythiophen-3-yl]ethylidenehydrazinocarbonyl}thiophene-2-carboxylic acid(tetrahydrofuran-2-ylmethyl)amide]", "values": [{"measurement": "proliferation of thrombopoietin-responsive UT7/EPO-mpl cells", "setting": "[1]; FIG. 1, UT7/EPO-mpl cells, 4 days, WST-8 absorbance at 450 nm", "result": "stimulated"}, {"measurement": "acts on the thrombopoietin receptor selectively as an activator", "setting": "[1]; conclusion from UT7/EPO-mpl versus UT7/EPO", "result": "selectively"}, {"measurement": "effect on proliferation of UT7/EPO, the mother cell line", "setting": "[4]", "result": "no effect"}]}]}
